Read-outs that look alike come from different tables or passages of the source.
How the values were obtained:
calcium level in serum [1] = conditions: healthy dog, continuous injection 20 min into thyroid artery; cited from earlier work
calcium level in serum [2] = conditions: normal person, 250 micrograms oral; cited from earlier work
blood sugar level = assay: Blood sugar in patients (Example 23); assay type: in vivo, human; conditions: patients suffering from glycosuria
Method: Three patients shown in Table 17 were treated by oral administration of a daily dose of 4 to 6 micrograms of 24R,25-(OH)2 -D3 in a form of the soft capsule composition obtained in Example 6 for 3 continuous weeks. After the completion of administration, the patient was fasted for a night and their blood specimen was collected at 11:00 a.m. in the next morning.
Effectiveness of reducing blood sugar level (ERBS) is calculated from the […]

magnesium level in serum [3] = conditions: thyroidectomized and parathyroidectomized rats, administered once; cited from earlier work
[4] = 30-day repeated oral administration toxicity (Example 26); assay type: in vivo, ICR mouse; conditions: 1 mg/kg/day, 30 days
Method: 24R,25-(OH)2 -D3 was dissolved in Panacete® 810 containing 1% by weight of ethanol, and the solution was forcibly p.o. administered once a day for 30 continuous days to each male or female ICR mouse of the groups shown in Table 20 at each one of the daily dose rates also shown in Table 20.
As the control, Panacete 810 was solely and forcibly p.o. administered to the mice of the same strain once a day for 30 continuous days.

calcium level in serum [5] = conditions: patients suffering from hypocalcemia; cited from earlier work
magnesium level in serum [6] = conditions: bilateral nephrectomy rats; cited from earlier work
tumour = assay: Anti-tumour experiments using mouse and rat as the host; assay type: in vivo
calcium level in serum [7] = conditions: dog with hyper-parathyreosis, thyroid arterial route; cited from earlier work

## C=C1CC[C@H](O)C/C1=C/C=C1\CCC[C@]2(C)[C@@H]([C@H](C)CCC(O)C(C)(C)O)CC[C@@H]12 (stereo partly shown) [24,25-(OH)2 -D3, 24,25-dihydroxycholecalciferol]
Calcium level in serum [1]
  Calcium level in serum: showed a temporary reduction
Calcium level in serum [2]
  Calcium level in serum: did not cause the significant change of calcium level
Blood sugar level
  blood sugar level: significant reduction of the blood sugar level was observed
Magnesium level in serum [3]
  magnesium clearance: did not affect the magnesium level in serum thereof and the magnesium clearance thereof
  magnesium level in serum: did not affect the magnesium level in serum
[4]
  biochemical examination of the blood and autopsy: any significant abnormal findings were not observed
Calcium level in serum [5]
  Calcium level in serum: non of them reported the case where the calcium level in the patient's serum showed a significant change
Magnesium level in serum [6]
  magnesium level in serum: did not affect significantly the magnesium level in serum
tumour
  anti-tumour effect in vivo: anti-tumour effect of the compound was confirmed
Calcium level in serum [7]
  Calcium level in serum: did not change the dog's calcium level in serum

Reference: US4442093A, “Method for administering 24,25-dihydroxycholecalciferol to persons suffering from hypercalcemia” (Kureha Kagaku Kogyo Kabushiki Kaisha, priority 1981, dated 1984)
